Measurements: patent publication US20240350454A1, “BACTERIAL EFFLUX PUMP INHIBITORS AND METHODS OF USE” (THE REGENTS OF THE UNIVERSITY OF COLORADO, priority 2021, published 2024)
Peptide text beside a SMILES is read from it. * marks the point of attachment. βNA = c1ccc2cc(N*)ccc2c1

Experiments:
Format in all cases: cell-based
[1] = test system: S. enterica serovar Typhimurium SL1344 sifB::gfp in RAW264.7 macrophages; assay: SAFIRE assay, intracellular bacterial load in macrophages; conditions: Salmonella enterica
Experimental: The following experiments were performed using the SAFIRE assay described in U.S. Publication 2020/0022961, which is incorporated by reference in its entirety for all purposes. SAFIRE (Screen for Anti-infectives using Fluorescence microscopy of IntracellulaR Enterobacteriaceae) uses cell culture as a surrogate to identify compounds that prevent intracellular replication of a model Gram-negative bacterial human pathogen. The method identifies compounds that prevent bacterial growth in broth culture and compounds that decrease the load of Gram-negative bacteria inside of macrophages at concentrations≤10 μM but have no effect on bacterial growth in standard Mueller Hinton broth (MHB) at 100 μM. Thus, SAFIRE enables the discovery of compounds that are effective against Gram-negative bacteria in host cells and in whole animals, whether or not they are antibacterial in broth.
(§1) The wild-type S. enterica serovar Typhimurium strain, SL1344, was initially isolated from the blood of an infected calf. For screening and validation in macrophages, SL1344 sifB::gfp was grown in Luria-Bertani Broth (LB) with 30 μg/ml streptomycin and 30 μg/ml kanamycin to saturation overnight, diluted to an OD of 0.001 and frozen in 100 μL aliquots in 20% glycerol at −80° C. Prior to infection, aliquots were grown in 5 mL cultures of LB with 30 μg/ml streptomycin and 30 μg/ml kanamycin for 18 hours at 37° C. with aeration. Bacterial strains were routinely grown in LB with antibiotics: 30 μg/ml streptomycin, 30 μg/ml kanamycin, 50 μg/ml ampicillin, 10 μg/ml tetracycline, and/or 1.15 μg/ml meropenem. The acrAB::kan and macAB::kan strains were constructed according to known methods. S. enterica subsp. enterica, serovar Typhimurium strain S10801, NR-22067 is a multidrug resistant isolate from a calf with sepsis. This strain and others as indicated were obtained through BEI resources, NIAID, NIH.
(§2) Murine macrophage-like RAW 264.7 cells and HeLa human epithelial cells were obtained from the American Type Tissue Collection. BMDMs were isolated as previously described. Briefly, marrow was flushed from the femurs of 1- to 4-month-old 129SvEvTac mice (Taconic Laboratories) bred in-house. Mononuclear cells were separated using Histopaque-1083 (Sigma), washed, and directly seeded into assay plates at 1×10^5 cells/ml in complete medium supplemented with 35% conditioned media from 3T3 cells expressing MCSF. Media were refreshed three days later. After 1 week, media were replaced with 100 μL fresh media and cells were infected as described below. All three types of cells were grown in DMEM high glucose (Sigma) supplemented with 10% fetal bovine serum, 2 mM L-glutamine, 1 mM sodium pyruvate, 10 mM HEPES, and 50 μMβ-mercaptoethanol. Cells were maintained in a 5% CO2 humidified atmosphere at 37° C. For screening, frozen aliquots of RAW 264.7 were thawed and allowed to expand for three days prior to seeding; other experiments were performed with cultures between passages four and 20.
SAFIRE—RAW264.7 macrophages (7×103 in 40 μL or 5×104 in 100 μL) were seeded, respectively, in 384- or 96-well black-walled glass-bottomed plates (Brooks Automation). Twenty four hours post-seeding, bacteria in 20 or 50 μL PBS were added to a final concentration of 1×10^7 CFU/mL, conditions yielding infection of approximately 70% of macrophages at 18 hours post-infection with minimal macrophage toxicity. The sifB::gfp bacterial reporter strain was used to minimize green signal from extracellular bacteria. […] At two hours post-infection, 200 or 500 nL compound was added using a pin tool (CyBio) to yield a final concentration of 25 μM. Each assay plate included rifampicin and DMSO controls. In some experiments, media were removed and replaced with fresh media containing 40 μg/mL gentamicin and increasing concentrations of the compounds of the disclosure. […]

RAW264.7 macrophages = conditions: mouse, 16 h
Excerpt: as §2
SAFIRE—RAW264.7 macrophages (7×103 in 40 μL or 5×104 in 100 μL) were seeded, respectively, in 384- or 96-well black-walled glass-bottomed plates (Brooks Automation). Twenty four hours post-seeding, bacteria in 20 or 50 μL PBS were added to a final concentration of 1×10^7 CFU/mL, conditions yielding infection of approximately 70% of macrophages at 18 hours post-infection with minimal macrophage toxicity. The sifB::gfp bacterial reporter strain was used to minimize green signal from extracellular bacteria. […] At two hours post-infection, 200 or 500 nL compound was added using a pin tool (CyBio) to yield a final concentration of 25 μM. Each assay plate included rifampicin and DMSO controls. In some experiments, media were removed and replaced with fresh media containing 40 μg/mL gentamicin and increasing concentrations of the compounds of the disclosure. At 17.5 hours post-infection, PBS containing MitoTracker Red CMXRos (Life Technologies) was added to a final concentration of 300 nM or 100 nM, for 384- or 96-well, respectively. Thirty minutes later, 16% paraformaldehyde was added to a final concentration of […] and incubated at room temperature for 15 minutes. Wells were washed twice with PBS and stained for 20 minutes with 1 μMDAPI; wells were washed twice and stored in 90% glycerol in PBS until imaging. The Z′-factor of the screening platform was 0.59 and 0.48 in 96-well and 384-well plates, respectively, within published ranges for complicated cell-based screens.
In addition, toxicity was measured according the following procedure: 1) analyzing macrophage cell morphology; and 2) using MATLAB to count cells (cells that lift up and float after treatment are not within the appropriate Z plane to be counted, and thus are considered dead). If 70% of the cells are adherent (as measured by comparing the number of cells before and after treatment), the compound is considered not toxic. Compounds that pass #1 and #2 above are considered to have a toxicity “>50 μM”. […]

E. Cloacae MB315 = assay: PMB MIC with selected compound in MHB; conditions: for MIC: Enterobacter cloacae, selected compound 50 μg/mL in MHB
Experimental: (§3) MIC for the antibiotic alone (i.e., in the absence of the disclosed compounds) is provided in the first row labeled “None”. […] […] At this concentration (50 μg/mL), the compounds of the disclosure lacked intrinsic antibacterial activity but a significant improvement in efficacy was still observed. Thus, the compounds of the disclosure may be used to potentiate the activity of antibiotics that have lost their efficacy due to efflux.

[2] = test system: S. enterica sp. Enterica S10801; assay: Doxycycline MIC with selected compound in MHB
Experimental: as §1
MIC for the antibiotic alone (i.e., in the absence of the disclosed compounds) is provided in the first row labeled “None”. […] At this concentration (50 μg/mL), the compounds of the disclosure lacked intrinsic antibacterial activity but a significant improvement in efficacy was still observed. […]

E. coli BAA-2340 [3] = assay: Doxycycline MIC with selected compound in MHB
Excerpt: (§4) MIC for the antibiotic alone (i.e., in the absence of the disclosed compounds) is provided in the first row labeled “None”. […] […] […] Thus, the compounds of the disclosure may be used to potentiate the activity of antibiotics that have lost their efficacy due to efflux.

K. pneumoniae BAA-1705 [4] = assay: Doxycycline MIC with selected compound in MHB
Excerpt: as §4

K. pneumoniae BAA-2342 [5] = assay: Doxycycline MIC with selected compound in MHB
Excerpt: as §4

E. cloacae BAA-2341 [6] = assay: Doxycycline MIC with selected compound in MHB
Experimental: as §3

E. coli BAA-2340 [7] = assay: Ciprofloxacin MIC with selected compound in MHB; conditions: comparator at 25 μg/mL in MHB
K. pneumoniae BAA-2342 [8] = assay: Ciprofloxacin MIC with selected compound in MHB; conditions: comparator at 25 μg/mL in MHB
K. pneumoniae BAA-1705 [9] = assay: Ciprofloxacin MIC with selected compound in MHB; conditions: comparator at 25 μg/mL in MHB
Experimental: as §3

E. cloacae BAA-2341 [10] = assay: Ciprofloxacin MIC with selected compound in MHB; conditions: comparator at 25 μg/mL in MHB
E. coli BAA-2340 [11] = assay: Chloramphenicol MIC with selected compound in MHB; conditions: comparator at 25 μg/mL in MHB
Experimental: as §3

[12] = test system: P. aeruginosa Focus MB0477; assay: Chloramphenicol MIC with selected compound in MHB; conditions: comparator at 25 μg/mL in MHB
Experimental: as §3

A. baumannii MB306 = assay: Chloramphenicol MIC with selected compound in MHB; conditions: comparator at 25 μg/mL in MHB
Excerpt: as §4

A. baumannii MB309 = assay: Chloramphenicol MIC with selected compound in MHB; conditions: comparator at 25 μg/mL in MHB
Excerpt: as §4

E. cloacae BAA-2341 [13] = assay: Chloramphenicol MIC with selected compound in MHB; conditions: comparator at 25 μg/mL in MHB
Excerpt: as §4

K. pneumoniae BAA-2342 [14] = assay: Chloramphenicol MIC with selected compound in MHB; conditions: comparator at 25 μg/mL in MHB
Excerpt: as §4

Row | Structure (SMILES) | IC50 [1] | Toxicity (RAW264.7 macrophages) | MIC (E. Cloacae MB315) | other results
1 | NC1CCN(C[C@H](O)COc2ccc(Cl)c(Cl)c2)C1 (some centres unmarked) [Compound 2] | < 1 µM | >50 µM | – | –
2 | N[C@H]1CCN(C[C@@H](O)COc2ccc(Cl)c(Cl)c2)C1 [Compound 16] | < 1 µM | >50 µM | 32 mg/L | –
3 | N[C@@H]1CCN(C[C@@H](O)COc2ccc(Cl)c(Cl)c2)C1 [Compound 15] | < 1 µM | >50 µM | – | –
4 | NC1CCN(CC(O)COc2ccc(Cl)cc2Cl)CC1 (centres unmarked) [Compound 7] | < 1 µM | <50 but >25 μM | 32 mg/L | –
5 | C[C@H]1c2cccc(O)c2C(=O)C2=C(O)[C@]3(O)C(=O)C(C(N)=O)=C(O)[C@@H](N(C)C)[C@@H]3[C@@H](O)[C@@H]21 [Doxycycline, doxycycline] | – | – | – | MIC ([2]; Salmonella enterica, antibiotic alone (row None), MHB): 32 mg/L; MIC (E. coli BAA-2340 [3]; Escherichia coli, BAA2340, antibiotic alone (row None), MHB): 8 mg/L; MIC (K. pneumoniae BAA-1705 [4]; Klebsiella pneumoniae, BAA1705, antibiotic alone (row None), MHB): 4 mg/L; MIC (K. pneumoniae BAA-2342 [5]; Klebsiella pneumoniae, BAA2342, antibiotic alone (row None), MHB): 8 mg/L; MIC (E. cloacae BAA-2341 [6]; Enterobacter cloacae, BAA2341, antibiotic alone (row None), MHB): 8 mg/L
6 | NCC1CCN(CC(O)COc2cc(Cl)cc(Cl)c2)C1 (centres unmarked) [Compound 10] | < 1 µM | <50 but >25 μM | 32 mg/L | –
7 | N[C@H]1CCN(C[C@H](O)COc2ccc(Cl)c(Cl)c2)C1 [Compound 14] | > 1 µM | >50 µM | – | –
8 | CC1(N)CCN(CC(O)COc2cc(Cl)cc(Cl)c2)CC1 (centres unmarked) [Compound 17] | < 1 µM | <25 µM | 16 mg/L | –
9 | NC1CCN(CC(O)COc2ccc(Cl)c(Cl)c2)CC1 (centres unmarked) [Compound 4] | < 1 µM | <25 µM | 16 mg/L | –
10 | N=C(N)NCCC[C@H](NC(=O)[C@@H](N)Cc1ccccc1)C(=O)Nc1ccc2ccccc2c1 [PAβN] (H-Phe-Arg-βNA) | – | – | – | Doxycycline MIC ([2]; comparator at 25 μg/mL in MHB): 8 mg/L; Doxycycline MIC (E. coli BAA-2340 [3]; comparator at 25 μg/mL in MHB): ≤1 mg/L; Doxycycline MIC (K. pneumoniae BAA-1705 [4]; comparator at 25 μg/mL in MHB): ≤1 mg/L; Doxycycline MIC (K. pneumoniae BAA-2342 [5]; comparator at 25 μg/mL in MHB): ≤1 mg/L; Doxycycline MIC (E. cloacae BAA-2341 [6]; comparator at 25 μg/mL in MHB): ≤1 mg/L; PMB MIC (E. Cloacae MB315; comparator at 25 μg/mL in MHB): 32 mg/L; Ciprofloxacin MIC (E. coli BAA-2340 [7]): 16 mg/L; Ciprofloxacin MIC (K. pneumoniae BAA-2342 [8]): 16 mg/L; Ciprofloxacin MIC (K. pneumoniae BAA-1705 [9]): 64 mg/L; Ciprofloxacin MIC (E. cloacae BAA-2341 [10]): 16 mg/L; Chloramphenicol MIC (E. coli BAA-2340 [11]): 8 mg/L; Chloramphenicol MIC [12]: 1 mg/L; Chloramphenicol MIC (A. baumannii MB306): 32 mg/L; Chloramphenicol MIC (A. baumannii MB309): 64 mg/L; Chloramphenicol MIC (E. cloacae BAA-2341 [13]): 2 mg/L; Chloramphenicol MIC (K. pneumoniae BAA-2342 [14]): 8 mg/L
11 | COCCCN(C)C1CCN(CC(O)COc2ccc(Cl)c(Cl)c2)CC1 (centres unmarked) [Compound 11] | < 1 µM | >50 µM | – | –
